Values of other authors, collected in patent US10765646B2, “Methods of treating developmental encephalopathies” (Ovid Therapeutics Inc., priority 2017, dated 2020).

Assays:
[1] = 5 mg (±)-ketamine i.v. infusion (30 min), single dose, fasting, healthy subjects, serum
[2] = estimated
[3] = relative to ketamine
[4] = molecular target: NMDA receptor; details: noncompetitive NMDA receptor antagonist

Structure (SMILES) | elimination half-life [2] | Ki [4] | further results
CNC1(c2ccccc2Cl)CCCCC1=O (racemic) [ketamine, (R,S)-2-(2-chlorophenyl)-2-(methylamino)cyclohexanone] | 2 to 3 h |  | AUC0-∞ of (±)-ketamine [1]: 59.9 ± 13.2 ng·h/mL; Cmax of (±)-ketamine [1]: 33.7 ± 9.74 ng/mL; T1/2 (apparent terminal half-life) of (±)-ketamine [1]: 6.99 ± 5.22 h
NC1(c2ccccc2Cl)CCCCC1=O (racemic) [norketamine, (R,S)-2-(2-chlorophenyl)-2-(amino)cyclohexanone] | 4 h |  | times less potent as an anesthetic in comparison (with ketamine) [3]: 3-5 times
N[C@@]1(c2ccccc2Cl)CCCCC1=O [(R)-(−)-norketamine] |  | 13 µM | 
N[C@]1(c2ccccc2Cl)CCCCC1=O [(S)-(+)-norketamine] |  | 1.7 µM | 
